{"source": "patent US20260183305A1", "about": "“METHYLENE BLUE FOR USE IN THERAPY OF HEPATITIS B AND/OR HEPATITIS D INFECTION” (priority 2022, published 2026)", "key": {"[1]": {"conditions": "after oral administration; cited from earlier work"}, "[2]": {"conditions": "transplacental exposure, mouse; cited from earlier work"}, "[3]": {"system": "HepNB2.7 cells", "test": "MTT cell viability assay, cytotoxicity of MB on HepNB2.7", "assay_type": "cell-based", "conditions": "HepNB2.7, MTT"}, "[4]": {"system": "HBV surface antigen (HBsAg)", "test": "HBsAg measurement by ELISA in supernatant of HDV infected HepNB2.7 cells", "assay_type": "cell-based, Hepatitis B Virus", "protocol": "(§1) HepG2-NTCP and HepNB2.7 cells (plated at 10×10^3 cells/well) were infected with 10 or 50 MOI of HDV using PEG (polyethylene glycol) 4% overnight as previously described (Alfaiate D, Lucifora J et al.; cf. above). MB (2.5 or 1.25 μg/ml) was added 16 hrs post HDV infection for 5 h and cells were incubated at room temperature in the dark. Three and six days post infection, RNA was extracted and HDV RNA level was monitored by RT-qPCR in order to determine HDV replication as described below. For HepNB2.7, the level of HBsAg in the supernatant were measured as described below.\nFor HepNB2.7, the level of HBsAg in the supernatant were measured at both time points by ELISA (Enzyme-Linked Immosorbent Assay, ABBOTT PRISM® HBsAg) according to the protocol of the manufacturer.\n(§2) HepG2-NTCP or HepNB2.7 cells were infected with different titers of HDV (10, 50, 100 MOI) and treated with 2.5 or 1.25 μg/ml of MB for 5 hours. Cells were analyzed at day 3 or day 6 post-infection and HDV replication was assessed by RT-PCR. For HepNB2.7, the level of HBsAg in the supernatant were measured at both time points.\nIn a second experiment the secretion of the HBV surface antigen (HBsAg) was measured in the supernatant of cells infected with 10, 50 or 100 MOI and treated with MB (2.5 or 1.25 μg/ml)."}, "[5]": {"conditions": "5 mg/ml solution for injection; cited from earlier work"}, "[6]": {"system": "HDV", "test": "MB HDV inhibition assay (HDV RNA by RT-qPCR) on HepG2-NTCP cells", "assay_type": "cell-based, Hepatitis D Virus", "conditions": "MB 2.5 or 1.25 μg/mL; for HDV RNA concentration: HepG2-NTCP", "protocol": "(§3) HepG2-NTCP or HepNB2.7 cells were infected with different titers of HDV (10, 50 MOI) and treated with 2.5 or 1.25 μg/ml of MB for 5 hours.\nas §1\n(§4) Total intracellular RNA was extracted using the Nucleospin RNA Kit (Macherey-Nagel AG). cDNA was synthesized from 100 ng total RNA using Superscript II and random hexamer primers (Roche Diagnosis). Quantification of HDV was performed by qRT-PCR as described (Alfaiate D, Lucifora J et al), using the primers described by Scholtes & colleagues (Scholtes C, Icard V, Amiri M et al; “Standardized one-step real-time reverse transcription-PCR assay for universal detection and quantification of hepatitis delta virus from clinical samples in the presence of a heterologous internal-control RNA.” J Clin Microbiol 2012;50:2126-2128.) and EEF1A1 as housekeeping gene.\nas §2\nThe inhibitory effect of MB on HDV replication on HepG2-NTCP cells was investigated. Cells infected with either 10 or 50 MOI of virus were treated with MB (2.5 or 1.25 μg/ml) and HDV replication was assessed at 3 days (A) or 6 days (B) post infection."}, "[7]": {"system": "HDV", "test": "MB HDV inhibition assay (HDV RNA by RT-qPCR) on HepNB2.7 cells", "assay_type": "cell-based, Hepatitis D Virus", "protocol": "as §3, §1, §4, §2\nThe inhibitory effect of MB on HDV replication on HepNB2.7 cells was investigated. In a first experiment cells infected with either 10 or 50 MOI were treated with MB (2.5 or 1.25 μg/ml) and HDV replication was assessed at 3 days, or 6 days, post infection."}, "[8]": {"system": "SARS-COV-2", "conditions": "in vitro, hermetically closed box; cited from earlier work"}, "[9]": {"system": "Influenza N1H1 virus", "conditions": "in vitro, hermetically closed box; cited from earlier work"}, "[10]": {"conditions": "Brazilian children, long periods of time; cited from earlier work"}}, "note": "“Also recorded” adds a separate entry of the source."}
{"smiles": "CN(C)c1ccc2nc3ccc(N(C)C)cc3[s+]c2c1.[Cl-]", "note": "[MB, [7-(dimethylamino)phenothiazin-3-ylidene]-dimethylazanium, chloride]", "values": [{"measurement": "bioavailability", "setting": "[1]", "value": 72, "unit": "%"}, {"measurement": "elimination half-life", "setting": "[1]", "value": 18, "unit": "h"}, {"measurement": "teratogenicity", "setting": "[2]", "value": "teratogenic"}, {"measurement": "long-term cytotoxic effect (percentage of viability)", "setting": "[3]; 3 days after incubation with different concentrations of MB", "value": "significant toxicity"}, {"measurement": "cytotoxic effect of MB in the presence of light as compared to dark", "setting": "[3]; dark vs photoactivated under visible light, 3 days after incubation", "value": "not significantly enhanced"}, {"measurement": "secretion of the HBV surface antigen (HBsAg) in the supernatant", "setting": "[4]; HepNB2.7 infected with 10, 50 or 100 MOI HDV, MB 2.5 or 1.25 μg/ml, all conditions tested", "value": "diminished secretion; also recorded: clear-cut dose/response relationship"}, {"measurement": "antiviral effect of MB over time", "setting": "[4]; results on day 3 and 6", "value": "accumulates over time"}, {"measurement": "compatibility with 0.9% saline solution", "setting": "[5]", "value": "not compatible"}, {"measurement": "compatibility with 5% glucose or 5% dextrose solution", "setting": "[5]", "value": "compatible"}, {"measurement": "HDV RNA concentration", "setting": "[6]; 10 MOI", "value": "too low to distinguish the antiviral impact of MB"}, {"measurement": "HDV RNA concentration", "setting": "[6]; 50 MOI, 3 and 6 days post infection", "value": "clear dose response relationship"}, {"measurement": "antiviral effect of MB against HDV infected HepG2-NTCP cells", "setting": "[6]; physiological drug concentrations", "value": "significant antiviral effect"}, {"measurement": "HDV replication signal", "setting": "[7]; HepNB2.7, 10 MOI, day 3 and 6", "value": "weak signal"}, {"measurement": "effect of MB on viral reproduction (HDV replication)", "setting": "[7]; HepNB2.7, 50 MOI, day 6 post infection, MB 2.5 or 1.25 μg/ml", "value": "dose related effect"}, {"measurement": "viral markers under long-term treatment (extrapolated)", "setting": "[7]; long-term treatment (weeks instead of days), cell lines, no data shown", "value": "complete disappearance of viral markers"}, {"measurement": "antiviral efficacy in the total dark", "setting": "[8]", "value": "strong antiviral efficacy"}, {"measurement": "antiviral efficacy in the total dark", "setting": "[9]", "value": "strong antiviral efficacy"}, {"measurement": "dose tolerated very well", "setting": "[10]", "value": "20-50 mg/kg per day"}]}
